{
  "source": "patent US7723056B1",
  "about": "“Particles” (The University of Manchester, priority 1997, dated 2010)",
  "system": "erythrocytes",
  "assay": "Haemoglobin assay of erythrocyte lysis",
  "type": "cell-based, rats",
  "conditions": "rat erythrocytes, no bacteria; haemoglobin at 578 nm; 100% = Triton X100",
  "experimental": "Fresh rats blood was obtained with sodium heparin added to prevent clotting. Following centrifugation at 600 g for 10 mins and discarding of the supernatant, the pelleted erythrocytes were resuspended and washed three times in isotonic sucrose-glucose phosphate buffer (0.2M sucrose, 0.1M glucose 10 mM sodium phosphate, pH 7.3). Erythrocytes were used on the same day.\nLeakage of haemoglobin from the erythrocytes (50 μl aliquots) was assayed spectrophotometrically at 578 nm against isotonic sucrose glucose phosphate buffer. Percentage lysis of the erythrocytes was established by construction of a standard curve. The supernatant from the centrifuged cells (3.2) represented 0% whereas 100% lysis obtained by incubation with 20 ul 10% v/v Triton X100 for 10 minutes.\nCultures were centrifuged at 600 g for 10 minutes and the supernatant examined spectrophotometrically as described above to assess erythrocyte lysis. In the presence of particles (but no bacteria) erythrocyte lysis varied between 0.88 and 0.61% with a mean of 0.73%. Addition of M-GALA alone to erythrocytes produced a lysis of 0.31%. No lysis occurred for erythrocytes left in buffer only.",
  "note": "Residues, ends and D or L forms follow the SMILES beside them. *: point of attachment. Myristoyl = CCCCCCCCCCCCCC(=O)*",
  "data": [
    {"compound": "CCCCCCCCCCCCCC(=O)N[C@@H](Cc1c[nH]c2ccccc12)C(=O)N[C@@H](CCC(=O)O)C(=O)N[C@@H](C)C(=O)N[C@@H](C)C(=O)N[C@@H](CC(C)C)C(=O)N[C@@H](C)C(=O)N[C@@H](CCC(=O)O)C(=O)N[C@@H](C)C(=O)N[C@@H](CC(C)C)C(=O)N[C@@H](C)C(=O)N[C@@H](CCC(=O)O)C(=O)N[C@@H](C)C(=O)N[C@@H](CC(C)C)C(=O)N[C@@H](C)C(=O)N[C@@H](CCC(=O)O)C(=O)N[C@@H](Cc1c[nH]cn1)C(=O)N[C@@H](CC(C)C)C(=O)N[C@@H](C)C(=O)N[C@@H](CCC(=O)O)C(=O)N[C@@H](C)C(=O)N[C@@H](CC(C)C)C(=O)N[C@@H](C)C(=O)N[C@@H](CCC(=O)O)C(=O)N[C@@H](C)C(=O)N[C@@H](CC(C)C)C(=O)N[C@@H](CCC(=O)O)C(=O)N[C@@H](C)C(=O)N[C@@H](CC(C)C)C(=O)N[C@@H](C)C(=O)N[C@@H](C)C(=O)O", "note": "[M-GALA, N, Myristic-GALA] (Myristoyl-WEAALAEALAEALAEHLAEALAEALEALAA-OH)", "values": [
      {"measurement": "erythrocyte lysis", "value": 0.31, "unit": "%"}
    ]}
  ]
}
